These results are taken from US20140057915A1, “KINASE INHIBITORS” (TOPIVERT PHARMA LIMITED, priority 2012, published 2014).

By IC50 is commonly meant the point on the concentration scale where inhibition reaches its midpoint.

The subject of one test is IL-8 release, PBMCs. As to the kind of experiment: LPS-induced IL-8 release in PBMC cells. The format is cell-based. The conditions noted are these: Homo sapiens, LPS stimulated, read-out: IC50 Values for Inhibition of Cytokine Release, PBMCs, IL-8. The method, then:
(b) LPS-Induced TNFα/IL-8 Release in PBMC Cells
Peripheral blood mononuclear cells (PBMCs) from healthy subjects are separated from whole blood using a density gradient (Lymphoprep, Axis-Shield Healthcare). The PBMCs are seeded in 96 well plates and treated with compounds at the desired concentration for 2 hours before addition of 1 ng/ml LPS (Escherichia Coli 0111:B4 from Sigma Aldrich) for 24 hours under normal tissue culture conditions (37° C., 5% CO2). The supernatant is harvested for determination of […] concentrations by sandwich ELISA (Duo-set, R&D systems) and read on the fluorescence microplate reader (Varioskan® Flash, ThermoFisher Scientific).

A further test addresses GSK3α (Homo sapiens, UniProt P49840). Nature of the test: GSK 3α enzyme inhibition (FRET), Method 2. In kind it is biochemical. Conditions: Table 4a2, different laboratory.
The target in another test is Syk (Homo sapiens, UniProt P43405). As to the kind of experiment: Syk enzyme inhibition (FRET). The format is biochemical. Conditions: Table 4a2, different laboratory. In short, it runs like this:
(§1)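 2 hr RT enzyme + cpd (added solns 4/0.4/0.04/0.004 μg/mL); + FRET peptide (8 μM soln) + ATP soln (c-Src 800 μM, Syk 60 μM), 1 hr; protease development 1 hr; read donor/acceptor emission ratio.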

The target of another test is cSrc (Homo sapiens, UniProt P12931). As to the kind of experiment: c-Src enzyme inhibition (FRET). The format is biochemical. The conditions noted are these: Table 4a2, different laboratory. In short, it runs like this:
as §1

Chain of GSK3α (P49840 whole entry): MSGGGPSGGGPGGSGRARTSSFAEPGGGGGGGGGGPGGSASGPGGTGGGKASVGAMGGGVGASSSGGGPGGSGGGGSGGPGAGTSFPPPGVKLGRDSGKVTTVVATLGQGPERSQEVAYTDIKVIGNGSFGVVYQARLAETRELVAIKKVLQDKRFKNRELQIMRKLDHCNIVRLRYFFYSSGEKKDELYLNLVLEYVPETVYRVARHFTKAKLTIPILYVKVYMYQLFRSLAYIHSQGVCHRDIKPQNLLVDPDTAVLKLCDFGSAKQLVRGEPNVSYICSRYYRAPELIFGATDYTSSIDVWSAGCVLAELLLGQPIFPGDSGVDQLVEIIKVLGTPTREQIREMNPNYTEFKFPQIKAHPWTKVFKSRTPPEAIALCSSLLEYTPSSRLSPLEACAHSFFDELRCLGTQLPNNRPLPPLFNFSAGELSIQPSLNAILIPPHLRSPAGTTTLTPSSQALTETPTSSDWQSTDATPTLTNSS
Chain of cSrc (P12931 whole entry): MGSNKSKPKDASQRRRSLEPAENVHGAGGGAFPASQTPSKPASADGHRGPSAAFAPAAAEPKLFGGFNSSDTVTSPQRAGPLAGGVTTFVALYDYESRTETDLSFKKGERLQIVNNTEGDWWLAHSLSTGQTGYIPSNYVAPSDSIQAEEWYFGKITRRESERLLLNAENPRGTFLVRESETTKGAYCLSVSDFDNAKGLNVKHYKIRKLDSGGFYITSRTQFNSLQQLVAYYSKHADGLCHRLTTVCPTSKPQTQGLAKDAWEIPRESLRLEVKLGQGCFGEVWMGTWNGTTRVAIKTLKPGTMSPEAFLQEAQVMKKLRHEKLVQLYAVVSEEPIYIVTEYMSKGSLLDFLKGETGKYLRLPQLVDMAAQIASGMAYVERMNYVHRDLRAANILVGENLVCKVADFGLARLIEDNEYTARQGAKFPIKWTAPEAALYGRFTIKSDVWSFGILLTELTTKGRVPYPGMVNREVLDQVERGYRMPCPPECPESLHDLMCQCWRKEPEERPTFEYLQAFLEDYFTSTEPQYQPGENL

For the compound `C#Cc1cc(Nc2nccc(Oc3ccc(NC(=O)Nc4cc(C(C)C)nn4-c4ccc(C)cc4)c(Cl)c3Cl)n2)cc(C(=O)NCCN2CCOCC2)c1` [Example 87, 3-((4-(2,3-Dichloro-4-(3-(3-isopropyl-1-(p-tolyl)-1H-pyrazol-5-yl)ureido)-phenoxy)pyrimidin-2-yl)amino)-5-ethynyl-N-(2-morpholinoethyl)benzamide], the IC50 in the test with IL-8 release, PBMCs stood at 9.4 nM; against GSK3α, 5840 nM; against Syk it was 27 nM; against cSrc, 22 nM.

In the case of `C#Cc1cc(Nc2nccc(Oc3ccc(NC(=O)Nc4cc(C(F)(F)C(F)(F)F)nn4-c4ccc(C)cc4)c4ccccc34)n2)cc(C(=O)NCCN2CCOCC2)c1` [Example 74, 3-Ethynyl-N-(2-morpholinoethyl)-5-((4-((4-(3-(3-(perfluoroethyl)-1-(p-tolyl)-1H-pyrazol-5-yl)ureido)naphthalen-1-yl)oxy)pyrimidin-2-yl)amino)benzamide], the 50% inhibitory concentration (IC50) was 4.1 nM with IL-8 release, PBMCs and at least 12100 nM against GSK3α.

As for `C#Cc1cc(Nc2nccc(Oc3ccc(NC(=O)Nc4cc(C(C)(C)C)nn4-c4ccc(OC)nc4)c4ccccc34)n2)cc(C(=O)NCCN2CCOCC2)c1` [Example 73, 3-((4-((4-(3-(3-(tert-Butyl)-1-(6-methoxypyridin-3-yl)-1H-pyrazol-5-yl)ureido)naphthalen-1-yl)oxy)pyrimidin-2-yl)amino)-5-ethynyl-N-(2-morpholinoethyl)benzamide], the IC50 in the test on IL-8 release, PBMCs was determined as 0.5 nM; against GSK3α, 402 nM.

`C#Cc1cc(Nc2nccc(Oc3ccc(NC(=O)Nc4cc(C(C)C)nn4-c4ccc(C)cc4)c(Cl)c3Cl)n2)cc(C(N)=O)c1` [Example 89, 3-((4-(2,3-Dichloro-4-(3-(3-isopropyl-1-(p-tolyl)-1H-pyrazol-5-yl)ureido)-phenoxy)pyrimidin-2-yl)amino)-5-ethynylbenzamide]: the IC50 was 14.6 nM with IL-8 release, PBMCs and at least 15300 nM at GSK3α.

Consider `C#Cc1cc(Nc2nccc(Oc3ccc(NC(=O)Nc4cc(C(C)(C)OC)nn4-c4ccc(C)cc4)c4ccccc34)n2)cc(C(=O)NCCN2CCOCC2)c1` [Example 79, 3-Ethynyl-5-((4-((4-(3-(3-(2-methoxypropan-2-yl)-1-(p-tolyl)-1H-pyrazol-5-yl)ureido)naphthalen-1-yl)oxy)pyrimidin-2-yl)amino)-N-(2-morpholinoethyl)benzamide], for which the IC50 in the test on IL-8 release, PBMCs amounted to 1.1 nM; at GSK3α, 756 nM.

With `C#Cc1cc(Nc2nccc(Oc3ccc(NC(=O)Nc4cc(C(C)C)nn4-c4ccc(C)cc4)c(F)c3F)n2)cc(C(=O)NCCN2CCOCC2)c1` [Example 88, 3-((4-(2,3-Difluoro-4-(3-(3-isopropyl-1-(p-tolyl)-1H-pyrazol-5-yl)ureido)-phenoxy)pyrimidin-2-yl)amino)-5-ethynyl-N-(2-morpholinoethyl)benzamide], the IC50 with IL-8 release, PBMCs came to 13.1 nM; at GSK3α, 172 nM.

On to `C#Cc1cc(Nc2nccc(Oc3ccc(NC(=O)Nc4cc(C(C)C)nn4-c4ccc(C)cc4)c(Cl)c3Cl)n2)cc(C(=O)NCCN(C)C)c1` [Example 90, 3-((4-(2,3-Dichloro-4-(3-(3-isopropyl-1-(p-tolyl)-1H-pyrazol-5-yl)ureido)-phenoxy)pyrimidin-2-yl)amino)-N-(2-(dimethylamino)ethyl)-5-ethynylbenzamide], for which the IC50 amounted to 7.8 nM with IL-8 release, PBMCs and 154 nM at GSK3α.
